According to paper PMC3700763, “First human dose-escalation study with remogliflozin etabonate, a selective inhibitor of the sodium-glucose transporter 2 (SGLT2), in healthy subjects and in subjects with type 2 diabetes mellitus” (BMC Pharmacology & Toxicology, 2013):
Read-outs that look alike come from different tables or passages of the source. Marks after values point to notes of the source that are not given here.

What was measured:
SGLT2 [1] = target: T1, SGLT2 (Homo sapiens, UniProt P31639); test: 24-h urine glucose excretion, T2DM subjects; format: in vivo; conditions: mean (SD)
T1 construct: from tissue; host or cells: kidney (proximal tubule) of living human subjects: healthy volunteers and T2DM patients
T1 sequence (P31639 1-672): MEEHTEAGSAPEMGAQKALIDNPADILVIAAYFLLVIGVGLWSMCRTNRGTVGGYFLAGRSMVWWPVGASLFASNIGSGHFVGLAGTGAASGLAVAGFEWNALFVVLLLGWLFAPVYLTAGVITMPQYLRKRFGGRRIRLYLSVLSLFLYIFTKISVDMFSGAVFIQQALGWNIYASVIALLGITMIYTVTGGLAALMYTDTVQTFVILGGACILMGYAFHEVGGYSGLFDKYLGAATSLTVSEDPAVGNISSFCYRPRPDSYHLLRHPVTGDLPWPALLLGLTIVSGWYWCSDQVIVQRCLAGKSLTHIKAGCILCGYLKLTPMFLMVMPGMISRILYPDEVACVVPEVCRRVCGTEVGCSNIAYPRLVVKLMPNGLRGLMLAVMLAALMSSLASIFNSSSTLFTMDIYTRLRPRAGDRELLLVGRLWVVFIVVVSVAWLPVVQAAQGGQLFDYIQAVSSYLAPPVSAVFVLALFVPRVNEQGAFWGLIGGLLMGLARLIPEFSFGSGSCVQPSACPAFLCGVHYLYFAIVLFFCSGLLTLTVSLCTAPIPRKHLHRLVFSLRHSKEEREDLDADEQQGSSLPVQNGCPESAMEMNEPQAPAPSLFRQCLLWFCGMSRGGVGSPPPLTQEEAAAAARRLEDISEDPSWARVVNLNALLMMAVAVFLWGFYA
Experimental: (§1) Urine samples were collected at pre-dose, and over a series of intervals (0–2, 2–4, 4–6, 6–8, 8–12 and 12–24 h post-dose) for the analysis of creatinine, glucose and electrolytes (Na, K and Cl). All fluid intake was recorded, as well as urine volume, over the 24 hours before and after dosing in each treatment period. Urine was tested for protein on the first morning void of day -1 and 24 h after dosing.
(§2) The percentage of filtered glucose excreted in the urine for each individual time period was calculated as the amount of glucose excreted during that time period divided by (CLCR × PG × time interval length), where CLCR is the creatinine clearance for the time interval, PG is the plasma glucose concentration closest to the midpoint of the time interval, and the time interval is the period (min) of urine collection (CLCR × PG represents the glucose filtered load). For the 24-h period, the percentage of filtered glucose excreted was calculated as the amount of glucose excreted over 24 h divided by the sum over the individual time intervals of (CLCR × PG × time interval length).

[2] = rats; cited from earlier work
SGLT2 [3] = target: T1, SGLT2; test: 24-h urine glucose excretion, healthy subjects; format: in vivo; conditions: for Filtered glucose excreted in urine / Urinary glucose excretion: 24-h, healthy subjects, mean (SD)
Experimental: as §1, §2

[4] = Plasma pharmacokinetics, T2DM subjects; format: in vivo, human; conditions: human, plasma analyte; for AUC(0-inf): read-out: AUC(0–∞) Geometric mean (CV%); for Cmax: read-out: Cmax Geometric mean (CV%); for Tmax: read-out: Tmax Median; for half-life: read-out: T½ Geometric mean (CV%) (converted)
Experimental: Six subjects with T2DM received two doses of remogliflozin etabonate and a placebo dose, in a randomized, dose escalating, crossover design, along with an oral glucose load on three study sessions separated by 7–14 days. Full PK and safety profiles were measured on Day 1 of each dosing period. The doses selected for this portion of the study, 50 mg and 500 mg, were based on data obtained in Part A. In each dosing period, subjects were assigned to active vs placebo in a 2:1 ratio. On each dosing day, a series of 2.0 mL blood samples were collected at pre-dose and 10, 20, 30 and 45 min, and 1, 1.25, 1.5, 2, 2.5, 3, 4, 6, 8, 12, 16, and 24 h post-dose for the determination of remogliflozin etabonate, remogliflozin and GSK279782 in plasma by using high-performance liquid chromatography with tandem mass spectrometry (MS/MS) as described. Non-compartmental PK analysis of plasma concentration–time data was performed using WinNonlin Version 4.1 (Pharsight Corporation, Mountainview, CA, USA). The Cmax and Tmax were obtained directly from the data. Areas under the plasma concentration–time curves from time zero to the last quantifiable time point (AUC[0–last]) and extrapolated to infinity (AUC[0–∞]) were calculated using the log-linear trapezoidal method. The terminal plasma elimination rate-constant (λz) was estimated from log-linear regression analysis of the terminal phase of the plasma concentration–time curve, and the T½ was calculated as T½ = ln2/λz. Ratios of AUC(0–∞) remogliflozin to AUC(0–last) remogliflozin etabonate were calculated including molecular weight corrections.

[5] = Fluid balance, healthy subjects; format: in vivo, human; conditions: mean (SD)
Experimental: as §1

[6] = Fluid balance, T2DM subjects; format: in vivo, human; conditions: mean (SD)
Experimental: as §1

[7] = 24-h urine electrolyte excretion, T2DM subjects; format: in vivo, human; conditions: mean (SD)
Experimental: as §1

[8] = mice; cited from earlier work
[9] = remogliflozin etabonate 50 mg oral dose
[10] = remogliflozin etabonate 500 mg oral dose (prodrug n = 2)
[11] = remogliflozin etabonate 500 mg oral dose
[12] = -24 h to pre-dose (baseline before dosing), 50 mg period
[13] = -24 h to pre-dose (baseline before dosing), 500 mg period

- Urinary glucose excretion (SGLT2 [1]; 50 mg single dose): 384 (210) mmol
- Filtered glucose excreted in urine (SGLT2 [1]; 50 mg single dose, n = 5): 15.9 (5.9)^c %
- Filtered glucose excreted in urine (SGLT2 [1]; 500 mg single dose): 21.6 (9.1) %
- Urinary glucose excretion (SGLT2 [1]; 500 mg single dose): 642 (256) mmol
- Filtered glucose excreted in urine (SGLT2 [3]; 20 mg single dose): 9.0 (2.2) %
- Urinary glucose excretion (SGLT2 [3]; 20 mg single dose): 67.1 (17.9) mmol
- Filtered glucose excreted in urine (SGLT2 [3]; 50 mg single dose, n = 7): 12.7 (3.7)^b %
- Urinary glucose excretion (SGLT2 [3]; 50 mg single dose, n = 7): 96.7 (17.1)^b mmol
- Filtered glucose excreted in urine (SGLT2 [3]; 150 mg single dose, n = 7): 25.5 (7.8)^b %
- Urinary glucose excretion (SGLT2 [3]; 150 mg single dose, n = 7): 168 (49.4)^b mmol
- Filtered glucose excreted in urine (SGLT2 [3]; 500 mg single dose): 34.2 (5.0) %
- Urinary glucose excretion (SGLT2 [3]; 500 mg single dose): 223 (49.5) mmol
- Filtered glucose excreted in urine (SGLT2 [3]; 1000 mg single dose): 26.4 (11.7) %
- Urinary glucose excretion (SGLT2 [3]; 1000 mg single dose): 304 (137) mmol
- Total amount of glucose excreted in urine from 0–24 h, dose dependence (SGLT2 [3]; both populations, less than proportional to dose): increased in a dose-dependent manner
- AUC(0-inf) [4, 9]: 8.91 ng·h/mL
- Cmax [4, 9]: 9.56 ng/mL
- Tmax [4, 9]: 34.8 min
- half-life [4, 9]: 36.6 min
- AUC(0-inf) [4, 10]: 91.9 ng·h/mL
- half-life [4, 10]: 49.2 min
- Cmax [4, 11]: 83.9 ng/mL
- Tmax [4, 11]: 45 min
- Fluid balance (total fluid intake minus total urine volume) ([5]; 0–12 h post-dose, 20 mg): 243 (1161) mL
- Fluid balance (total fluid intake minus total urine volume) ([5]; 0–12 h post-dose, 50 mg): -570 (582) mL
- Fluid balance (total fluid intake minus total urine volume) ([5]; 0–12 h post-dose, 150 mg): -86 (909) mL
- Fluid balance (total fluid intake minus total urine volume) ([5]; 0–12 h post-dose, 500 mg): -159 (531) mL
- Fluid balance (total fluid intake minus total urine volume) ([5]; 0–12 h post-dose, 1000 mg): -273 (331) mL
- Fluid balance (total fluid intake minus total urine volume) ([5]; 12–24 h post-dose, 20 mg): -581 (387) mL
- Fluid balance (total fluid intake minus total urine volume) ([5]; 12–24 h post-dose, 50 mg): -551 (530) mL
- Fluid balance (total fluid intake minus total urine volume) ([5]; 12–24 h post-dose, 150 mg): -564 (478) mL
- Fluid balance (total fluid intake minus total urine volume) ([5]; 12–24 h post-dose, 500 mg): -424 (334) mL
- Fluid balance (total fluid intake minus total urine volume) ([5]; 12–24 h post-dose, 1000 mg): -495(367) mL
- Fluid balance (total fluid intake minus total urine volume) ([5]; -24 h to pre-dose (baseline before dosing), 20 mg period): -460 (1311) mL
- Fluid balance (total fluid intake minus total urine volume) [5, 12]: -338 (525) mL
- Fluid balance (total fluid intake minus total urine volume) ([5]; -24 h to pre-dose (baseline before dosing), 150 mg period): -512 (731) mL
- Fluid balance (total fluid intake minus total urine volume) [5, 13]: -278 (1250) mL
- Fluid balance (total fluid intake minus total urine volume) ([5]; -24 h to pre-dose (baseline before dosing), 1000 mg period): -126 (798) mL
- Fluid balance (total fluid intake minus total urine volume) ([6]; 0–12 h post-dose, 50 mg): -78(433) mL
- Fluid balance (total fluid intake minus total urine volume) ([6]; 0–12 h post-dose, 500 mg): -29 (749) mL
- Fluid balance (total fluid intake minus total urine volume) ([6]; 12–24 h post-dose, 50 mg): -803 (658) mL
- Fluid balance (total fluid intake minus total urine volume) ([6]; 12–24 h post-dose, 500 mg): -1088(679) mL
- Fluid balance (total fluid intake minus total urine volume) [6, 12]: -504 (294) mL
- Fluid balance (total fluid intake minus total urine volume) [6, 13]: 188 (1879) mL
- Fluid balance (total fluid intake minus total urine volume) ([6]; -24 h to pre-dose (baseline before dosing), 500 mg period, listed as remogliflozin etabonate): +188 mL
- Urinary chloride excretion ([7]; 50 mg single dose, n = 5): 168 (23.9)^c mmol
- Urinary potassium excretion ([7]; 50 mg single dose, n = 5): 65.8 (4.5)^c mmol
- Urinary sodium excretion ([7]; 50 mg single dose, n = 5): 173 (35.5)^c mmol
- Urinary chloride excretion ([7]; 500 mg single dose): 287 (147) mmol
- Urinary potassium excretion ([7]; 500 mg single dose): 108 (65.8) mmol
- Urinary sodium excretion ([7]; 500 mg single dose): 301 (128) mmol
SMILES: CCOC(=O)OC[C@H]1O[C@@H](Oc2nn(C(C)C)c(C)c2Cc2ccc(OC(C)C)cc2)[C@H](O)[C@@H](O)[C@@H]1O [Remogliflozin etabonate, remogliflozin etabonate]
- Urinary glucose excretion [2]: concentration-dependent increase
- Urinary glucose excretion [8]: concentration-dependent increase
